Source: PMC5638327, “Comparison of bioavailability and antiplatelet action of ticagrelor in patients with ST-elevation myocardial infarction and non-ST-elevation myocardial infarction: A prospective, observational, single-centre study” (PLoS ONE, 2017)
Like-named read-outs stand apart in the source and are kept apart here.

Key:
[1] = Pharmacokinetic assessment: plasma concentrations by liquid chromatography tandem mass spectrometry after ticagrelor loading dose; assay type: in vivo, human (patients with myocardial infarction); conditions: for Tmax / AUC(0-t) / Cmax: both sexes, human, plasma, 180 mg
Method: Consecutive STEMI and NSTEMI patients admitted to the study site (Cardiology Department, Dr. A. Jurasz University Hospital, Bydgoszcz, Poland) were screened for eligibility. After admission to the study centre, confirmation of the initial diagnosis of STEMI or NSTEMI, and provision of a written informed consent to participate in the trial, all study participants received an oral 300 mg LD of plain aspirin (Polpharma SA, Starogard Gdański, Poland) and 180 mg LD ticagrelor in integral tablets with 250 mL tap water. Subsequently, within 15 minutes of ticagrelor LD, all patients underwent coronary angiography followed by PCI as required. During the periprocedural period, all study participants received unfractionated heparin in body weight adjusted dose according to the European Society of Cardiology (ESC) recommendations. Plasma concentrations of ticagrelor and its active metabolite, as well as their antiplatelet effect, were evaluated according to the sampling schedule employed at our centre in previous PK/PD study (pre-treatment, 0.5 h, 1 h, 2 h, 3 h, 4 h, 6 h and 12 h post ticagrelor LD).
Blood samples for PK/PD evaluation were obtained from an 18-gauge cannula inserted into one of the forearm veins. The first 5 mL blood was discarded to avoid spontaneous platelet activation. In each patient specimens were collected at the eight pre-defined time. Detailed description of blood sample processing has been published in the study protocol (S1 File).
Ticagrelor and AR-C124910XX plasma concentrations were analyzed with liquid chromatography coupled with tandem mass spectrometry, using a validated method. Lower limits of quantification were 4.69 ng/mL for both ticagrelor and AR-C124910XX.
Statistical calculations were performed using the Statistica 12.5 package (StatSoft, Tulsa, OK, USA). Pharmacokinetic calculations and plots were made using the Matlab R2014 software (Mathworks, Natick, MA, USA); trapezoidal rule was applied to calculate AUC. Data for pharmacokinetic features of ticagrelor and AR-C124910XX, pharmacodynamic outcome variables, creatinine, glomerular filtration rate and left ventricle ejection fraction were presented as medians and interquartile ranges. Data for heart rate, systolic and diastolic blood pressure, age and body mass index were presented as means with standard deviations. […] Continuous variables were compared between both study groups with the Student’s t-test and Mann-Whitney U test, depending on the presence or absence of the normal distribution (as assessed by the Shapiro-Wilk test). Comparisons between categorical variables were performed by the chi-square test, with Yates's correction if necessary, or using Fisher's exact test. […]
Blood samples for pharmacokinetic and phar- infarction; PCI, percutaneous coronary intervention; PD, macodynamic assessment will be drawn at eight prede- pharmacodynamics; PK, pharmacokinetics; STEMI, ﬁned time points according to the blood sampling ST-elevation myocardial infarction. schedule already used at our site in a previous study
( pretreatment baseline, 30 min, 1, 2, 3, 4, 6 andsamples will be stored at temperature below −60°C until 12 hours post-ticagrelor LD— as shown in ﬁgure 1). 31 analysed.
All enrolled patients with ﬁnally unconﬁrmed initial Venous blood for the assessment of pharmacodynam-diagnosis of AMI will be excluded from the primar y ana- ics with the vasodilator-stimulated phosphoprotein lysis. Patients qualiﬁed for urgent coronar y arter y bypass (VASP) assay and multiple electrode aggregometr y surgery within the blood sampling period also will not (MEA) will be collected into trisodium citrate and be included in the analysis. All study participants not hirudin vacuum test tubes, respectively. The ﬁrst 3–5mL receiving PCI will be reported. of blood will be discarded to avoid spontaneous platelet Study population activation. The pharmacodynamic analysis will be per- […]

[2] = as above; assay type: in vivo, human (patients with myocardial infarction); conditions: both sexes, human, oral, 180 mg, internal pilot study, first 15 patients with NSTEMI, mean and SD, read-out: AUC(0–6)
platelet inhibition = system: platelet inhibition; parameters: method as in earlier work; conditions: 2 hours after ticagrelor LD; ref 18 20 25 (of the protocol); cited from earlier work
[3] = po, NSTEMI patients, oral 180 mg ticagrelor LD, 0 to 12 hours, median [interquartile range]
[4] = po, STEMI patients, oral 180 mg ticagrelor LD, 0 to 12 hours, median [interquartile range]

Which Tmax ([1]; oral, NSTEMI opioid-treated (morphine) patients (second value of the pair), post hoc analysis, median [interquartile range]) does the source give for `CCCSc1nc(N[C@@H]2C[C@H]2c2ccc(F)c(F)c2)c2nnn([C@@H]3C[C@H](OCCO)[C@@H](O)[C@H]3O)c2n1` [ticagrelor] here?
Its Tmax is 4 h.

And the Tmax ([1]; oral, NSTEMI patients without morphine (first value of the pair), post hoc analysis, median [interquartile range])?
Its Tmax is 1 h.

What about the AUC(0-t) ([1]; oral, internal pilot study, first 30 patients with STEMI, mean and SD, read-out: AUC(0–6)) of the same compound?
The AUC(0-t) was 2380 ± 2280 ng·h/mL.

And the AUC(0-t) ([1]; po, NSTEMI patients (n = 24), oral 180 mg ticagrelor LD, median [interquartile range], read-out: AUC(0–6))?
Its AUC(0-t) is 3990 ng·h/mL.

And the Cmax [1, 3]?
Its Cmax is 1160 ng/mL.

What about the Tmax [1, 3] of the same compound?
The Tmax was 2.5 h.

And the AUC(0-t) ([1]; po, NSTEMI patients, oral 180 mg ticagrelor LD, median [interquartile range], read-out: AUC(0–12))?
Its AUC(0-t) is 8600 ng·h/mL.

And the AUC(0-t) ([1]; po, STEMI patients (n = 49), oral 180 mg ticagrelor LD, median [interquartile range], read-out: AUC(0–6))?
The AUC(0-t) was 2490 ng·h/mL.

What about the Cmax [1, 4] of the same compound?
The Cmax was 1110 ng/mL.

And the Tmax [1, 4]?
Its Tmax is 4 h.

And the AUC(0-t) ([1]; po, STEMI patients, oral 180 mg ticagrelor LD, median [interquartile range], read-out: AUC(0–12))?
Its AUC(0-t) is 5680 ng·h/mL.

And the “lower AUC(0–6) in STEMI than in NSTEMI patients” value ([1]; first 6 h after 180 mg ticagrelor LD)?
The value was 38%.

And the AUC(0-t) [2]?
Its AUC(0-t) is 6410 ± 4080 ng·h/mL.

What about the “patients with STEMI with inadequate platelet inhibition” value (platelet inhibition) of the same compound?
The value was at most 60%.
